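Results reflect a 48-hour exposure of cells in 96-well plates to compound at five concentrations. At the GI50, growth is halved.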 The source made the active and inactive calls. No stated cut-off is given here; in the data, active = GI50 up to about 1.1 µM and inactive = higher.
What was measured:
Assay in all cases: NCI-60 cell line screen, 48 h
[1] = test system: SK-OV-3
[2] = test system: SNB-19
[3] = test system: NCI-H460
[4] = test system: SK-MEL-2
[5] = test system: UACC-62
[6] = test system: KM12
[7] = test system: NCI-H23
[8] = test system: COLO 205
[9] = test system: SF-268
[10] = test system: DU-145
[11] = test system: IGROV-1
[12] = test system: MDA-MB-231
[13] = test system: PC-3
[14] = test system: Malme-3M
[15] = test system: M14
[16] = test system: LOX IMVI
[17] = test system: MDA-N
[18] = test system: Hs-578T
[19] = test system: SK-MEL-5
[20] = test system: T47D

With `COc1ccc2c(c1OC)C(=O)O[C@@H]2[C@H]1c2c(cc3c(c2OC)OCO3)CCN1C` [NOSCAPINE] the GI50 [1] was 73.1 µM (inactive), the GI50 [2] was 80.5 µM (inactive) and the GI50 [3] was 39.9 µM (inactive). For the same compound, the GI50 [4] was 34.1 µM (inactive), the GI50 [5] was 56.9 µM (inactive) and the GI50 [6] was 45.8 µM (inactive). For the same compound, the GI50 [7] was 79.1 µM (inactive), the GI50 [8] was 63.5 µM (inactive) and the GI50 [9] was 71.8 µM (inactive). For the same compound, the GI50 [10] was > 100 µM (inactive), the GI50 [11] was 62.7 µM (inactive) and the GI50 [12] was 76.6 µM (inactive). The GI50 [13] was 50.1 µM (inactive), the GI50 [14] was 33.5 µM (inactive) and the GI50 [15] was 39.2 µM (inactive). The GI50 [16] was 37.2 µM (inactive), the GI50 [17] was 23.1 µM (inactive) and the GI50 [18] was 21.1 µM (inactive). The GI50 [19] was 48.3 µM (inactive) and the GI50 [20] was > 100 µM (inactive).

In the case of `CCOC(=O)Cc1c(C)c2cc(C(=O)c3ccccc3)c(O)cc2oc1=O`, the GI50 [2] is reported as 33.7 µM (inactive), the GI50 [3] is reported as 33.3 µM (inactive) and the GI50 [4] is reported as 14.9 µM (inactive). For the same compound, the GI50 [5] was 35.3 µM (inactive), the GI50 [7] was 19.3 µM (inactive) and the GI50 [8] was 18.5 µM (inactive). The GI50 [9] was 24.9 µM (inactive), the GI50 [10] was 30.8 µM (inactive) and the GI50 [11] was 39.6 µM (inactive). The GI50 [12] was 23.8 µM (inactive), the GI50 [13] was 24.8 µM (inactive) and the GI50 [14] was 25.4 µM (inactive). The GI50 [15] was 34.3 µM (inactive), the GI50 [16] was 30.3 µM (inactive) and the GI50 [17] was 33.3 µM (inactive). The GI50 [18] was 26.2 µM (inactive), the GI50 [19] was 17.6 µM (inactive) and the GI50 [20] was 28.2 µM (inactive).

`CCN1C/C(=C\c2cc(OC)c(OC)c(OC)c2)C2=NN(c3ccccc3)C(c3cc(OC)c(OC)c(OC)c3)C2C1` (stereo unspecified) was tested, and the GI50 [1] was 1.74 µM (inactive), the GI50 [2] was 1.97 µM (inactive) and the GI50 [3] was 1.06 µM (active). For the same compound, the GI50 [4] was 6.84 µM (inactive), the GI50 [5] was 20.1 µM (inactive) and the GI50 [6] was 4.34 µM (inactive). For the same compound, the GI50 [7] was 3.56 µM (inactive), the GI50 [8] was 2.36 µM (inactive) and the GI50 [9] was 0.365 µM (active). For the same compound, the GI50 [10] was 2.99 µM (inactive), the GI50 [11] was 6.43 µM (inactive) and the GI50 [12] was 0.525 µM (active). For the same compound, the GI50 [13] was 1.08 µM (active), the GI50 [14] was 0.203 µM (active) and the GI50 [15] was 1.7 µM (inactive). The GI50 [16] was 2.08 µM (inactive), the GI50 [17] was 2.41 µM (inactive) and the GI50 [18] was 0.34 µM (active). For the same compound, the GI50 [19] was 3.74 µM (inactive) and the GI50 [20] was 3.53 µM (inactive).

For `COC(=O)[C@@H]1C[C@H]2OC(=O)CC[C@]2(C)O[C@H]1[C@H]1O[C@@](C)(O)CCC[C@H]1C`, the GI50 [1] was > 50 µM (inactive), the GI50 [2] was > 50 µM (inactive) and the GI50 [3] was > 50 µM (inactive). For the same compound, the GI50 [4] was > 50 µM (inactive), the GI50 [5] was > 50 µM (inactive) and the GI50 [6] was > 50 µM (inactive). The GI50 [7] was > 50 µM (inactive), the GI50 [8] was > 50 µM (inactive) and the GI50 [9] was > 50 µM (inactive). For the same compound, the GI50 [10] was > 50 µM (inactive), the GI50 [11] was > 50 µM (inactive) and the GI50 [12] was > 50 µM (inactive). The GI50 [13] was > 50 µM (inactive), the GI50 [14] was > 50 µM (inactive) and the GI50 [15] was > 50 µM (inactive). The GI50 [16] was 6.07 µM (inactive), the GI50 [17] was > 50 µM (inactive) and the GI50 [18] was > 50 µM (inactive). For the same compound, the GI50 [19] was > 50 µM (inactive) and the GI50 [20] was > 50 µM (inactive).

With `Cc1nn(C(=O)c2ccncc2)c2c1C(c1ccc([N+](=O)[O-])cc1)SC(=N)N2` (stereo unspecified) the GI50 [1] was > 100 µM (inactive), the GI50 [2] was > 100 µM (inactive) and the GI50 [3] was > 100 µM (inactive). The GI50 [4] was > 100 µM (inactive), the GI50 [5] was > 100 µM (inactive) and the GI50 [6] was > 100 µM (inactive). The GI50 [7] was > 100 µM (inactive), the GI50 [8] was > 100 µM (inactive) and the GI50 [9] was > 100 µM (inactive). For the same compound, the GI50 [10] was > 100 µM (inactive), the GI50 [11] was > 100 µM (inactive) and the GI50 [12] was > 100 µM (inactive). For the same compound, the GI50 [13] was > 100 µM (inactive), the GI50 [14] was > 100 µM (inactive) and the GI50 [15] was > 100 µM (inactive). The GI50 [16] was > 100 µM (inactive), the GI50 [17] was > 100 µM (inactive) and the GI50 [18] was > 100 µM (inactive). For the same compound, the GI50 [19] was > 100 µM (inactive) and the GI50 [20] was > 100 µM (inactive).

`Cc1ccccc1NC(=N)Nc1ccccc1C` was tested, and the GI50 [1] was > 100 µM (inactive), the GI50 [2] was > 100 µM (inactive) and the GI50 [3] was > 100 µM (inactive). For the same compound, the GI50 [4] was > 100 µM (inactive), the GI50 [5] was > 100 µM (inactive) and the GI50 [6] was > 100 µM (inactive). The GI50 [7] was > 100 µM (inactive), the GI50 [8] was > 100 µM (inactive) and the GI50 [9] was > 100 µM (inactive). The GI50 [10] was > 100 µM (inactive), the GI50 [11] was > 100 µM (inactive) and the GI50 [12] was > 100 µM (inactive). For the same compound, the GI50 [13] was > 100 µM (inactive), the GI50 [14] was > 100 µM (inactive) and the GI50 [15] was 66.8 µM (inactive). The GI50 [16] was > 100 µM (inactive), the GI50 [17] was > 100 µM (inactive) and the GI50 [18] was > 100 µM (inactive). The GI50 [19] was > 100 µM (inactive) and the GI50 [20] was > 100 µM (inactive).

In the case of `C1CCNCC1.O=C1NC(=S)N/C1=C/c1ccccc1O`, the GI50 [1] is reported as > 100 µM (inactive), the GI50 [2] is reported as > 100 µM (inactive) and the GI50 [4] is reported as > 100 µM (inactive). The GI50 [5] was > 100 µM (inactive), the GI50 [7] was > 100 µM (inactive) and the GI50 [8] was > 100 µM (inactive). For the same compound, the GI50 [9] was > 100 µM (inactive), the GI50 [10] was > 100 µM (inactive) and the GI50 [11] was 99.1 µM (inactive). The GI50 [12] was > 100 µM (inactive), the GI50 [13] was > 100 µM (inactive) and the GI50 [14] was > 100 µM (inactive). For the same compound, the GI50 [15] was > 100 µM (inactive), the GI50 [16] was > 100 µM (inactive) and the GI50 [17] was > 100 µM (inactive). For the same compound, the GI50 [18] was 26.4 µM (inactive), the GI50 [19] was > 100 µM (inactive) and the GI50 [20] was 56.2 µM (inactive).

— ChEMBL document CHEMBL1201862, “PubChem BioAssay data set” (2004)
